Common to all, as to format: biochemical
One assay addresses HDAC4 (Homo sapiens, UniProt P56524). The assay can be described thus: HDAC enzyme activity test, HDAC4. As to conditions: Table 11, eleven HDAC isozymes; read-out: Inhibition ability (IC50) against HDAC4. How it is done:
(§1) Then, 0.3 μg of enzyme and 10 μM of substrate per well were added, reacted at 30° C. for 60 minutes. Thereto, Fluor de Lys® Developer II (BML-KI176) was added and reacted for 30 minutes. […] From the data, the respective IC50 were calculated by GraphPad Prism 4.0 program.

In the next assay the target is T1, human recombinant HDAC6 (Homo sapiens, UniProt Q9UBN7).
T1 construct: purchased Calibiochem Co. (so in the source) 382180
T1 sequence (Q9UBN7 1-1215): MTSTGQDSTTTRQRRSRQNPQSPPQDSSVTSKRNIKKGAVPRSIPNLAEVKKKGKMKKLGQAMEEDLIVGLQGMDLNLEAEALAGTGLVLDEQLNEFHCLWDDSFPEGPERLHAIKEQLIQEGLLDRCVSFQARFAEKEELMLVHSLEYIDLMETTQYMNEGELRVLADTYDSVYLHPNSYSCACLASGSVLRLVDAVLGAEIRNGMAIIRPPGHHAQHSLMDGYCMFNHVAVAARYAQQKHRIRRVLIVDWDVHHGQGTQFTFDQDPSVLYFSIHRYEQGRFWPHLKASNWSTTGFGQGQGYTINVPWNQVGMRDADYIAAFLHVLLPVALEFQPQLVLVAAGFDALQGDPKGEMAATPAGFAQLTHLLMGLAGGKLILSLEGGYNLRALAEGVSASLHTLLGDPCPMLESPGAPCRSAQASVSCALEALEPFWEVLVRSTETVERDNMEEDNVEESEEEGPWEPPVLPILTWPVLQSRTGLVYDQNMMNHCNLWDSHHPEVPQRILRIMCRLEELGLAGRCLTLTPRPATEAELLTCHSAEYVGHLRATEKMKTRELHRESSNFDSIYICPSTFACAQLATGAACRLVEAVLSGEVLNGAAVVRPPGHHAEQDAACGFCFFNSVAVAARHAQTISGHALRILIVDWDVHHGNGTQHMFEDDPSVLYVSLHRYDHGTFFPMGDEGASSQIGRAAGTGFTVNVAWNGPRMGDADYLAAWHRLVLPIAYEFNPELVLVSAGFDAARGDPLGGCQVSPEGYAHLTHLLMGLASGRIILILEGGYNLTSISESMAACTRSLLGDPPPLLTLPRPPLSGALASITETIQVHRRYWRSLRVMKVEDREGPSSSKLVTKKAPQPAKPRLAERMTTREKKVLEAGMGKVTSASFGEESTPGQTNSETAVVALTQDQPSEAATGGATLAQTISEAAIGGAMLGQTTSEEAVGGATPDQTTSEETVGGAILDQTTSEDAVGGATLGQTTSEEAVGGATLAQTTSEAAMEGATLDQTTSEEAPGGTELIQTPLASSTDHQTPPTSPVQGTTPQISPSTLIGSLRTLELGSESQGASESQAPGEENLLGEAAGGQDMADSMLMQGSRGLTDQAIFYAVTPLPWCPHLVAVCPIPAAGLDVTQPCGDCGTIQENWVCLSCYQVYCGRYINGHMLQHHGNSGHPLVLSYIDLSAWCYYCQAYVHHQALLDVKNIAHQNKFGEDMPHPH
The assay can be described thus: HDAC enzyme activity test, HDAC6. The note with it: for Selectivity for HDAC6, HD1/HD6: ratio HDAC1 IC50 / HDAC6 IC50. How it is done: as §1

In another assay the target is T2, HDAC8 (Homo sapiens, UniProt Q9BY41).
T2 sequence (Q9BY41 1-377): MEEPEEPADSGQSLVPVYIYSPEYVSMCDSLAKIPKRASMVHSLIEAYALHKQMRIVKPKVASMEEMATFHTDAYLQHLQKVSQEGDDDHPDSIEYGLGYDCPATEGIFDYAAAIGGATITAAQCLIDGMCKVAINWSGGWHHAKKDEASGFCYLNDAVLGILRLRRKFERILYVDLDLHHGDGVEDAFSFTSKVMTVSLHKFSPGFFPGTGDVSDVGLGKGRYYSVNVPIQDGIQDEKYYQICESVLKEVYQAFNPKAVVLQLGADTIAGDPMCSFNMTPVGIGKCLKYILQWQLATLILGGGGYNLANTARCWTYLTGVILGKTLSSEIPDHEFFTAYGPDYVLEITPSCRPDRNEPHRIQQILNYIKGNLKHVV
Briefly: HDAC enzyme activity test, HDAC8. The note with it: Table 11, eleven HDAC isozymes; read-out: Inhibition ability (IC50) against HDAC8. How it is done:
as §1

The next assay has as its target HDAC9 (Homo sapiens, UniProt Q9UKV0). The assay can be described thus: HDAC enzyme activity test, HDAC9. As to conditions: Table 11, eleven HDAC isozymes; read-out: Inhibition ability (IC50) against HDAC9. How it is done: as §1
A further assay deals with T3, HDAC11 (Homo sapiens, UniProt Q96DB2).
T3 sequence (Q96DB2 1-347): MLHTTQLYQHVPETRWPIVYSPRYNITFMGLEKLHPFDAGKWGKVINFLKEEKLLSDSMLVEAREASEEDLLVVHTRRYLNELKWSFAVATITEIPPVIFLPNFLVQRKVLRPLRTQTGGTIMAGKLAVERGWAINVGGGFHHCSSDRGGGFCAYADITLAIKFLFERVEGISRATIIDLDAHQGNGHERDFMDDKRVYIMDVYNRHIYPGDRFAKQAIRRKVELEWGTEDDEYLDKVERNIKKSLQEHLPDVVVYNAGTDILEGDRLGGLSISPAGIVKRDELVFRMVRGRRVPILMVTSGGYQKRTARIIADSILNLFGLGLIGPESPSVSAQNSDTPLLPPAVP
The assay can be described thus: HDAC enzyme activity test, HDAC11. The note with it: Table 11, eleven HDAC isozymes; read-out: Inhibition ability (IC50) against HDAC11. How it is done:
as §1

The mark [1] stands for this setting: Table 11, eleven HDAC isozymes, read-out: Inhibition ability (IC50) against HDAC6.
Where [2] appears, read: Table 12, read-out: Inhibition ability (IC50) HDAC6.

Each structure is given as a SMILES string. Like-named read-outs stand apart in the source and are kept apart here.

HDAC4, sequence (P56524 whole entry, species assumed): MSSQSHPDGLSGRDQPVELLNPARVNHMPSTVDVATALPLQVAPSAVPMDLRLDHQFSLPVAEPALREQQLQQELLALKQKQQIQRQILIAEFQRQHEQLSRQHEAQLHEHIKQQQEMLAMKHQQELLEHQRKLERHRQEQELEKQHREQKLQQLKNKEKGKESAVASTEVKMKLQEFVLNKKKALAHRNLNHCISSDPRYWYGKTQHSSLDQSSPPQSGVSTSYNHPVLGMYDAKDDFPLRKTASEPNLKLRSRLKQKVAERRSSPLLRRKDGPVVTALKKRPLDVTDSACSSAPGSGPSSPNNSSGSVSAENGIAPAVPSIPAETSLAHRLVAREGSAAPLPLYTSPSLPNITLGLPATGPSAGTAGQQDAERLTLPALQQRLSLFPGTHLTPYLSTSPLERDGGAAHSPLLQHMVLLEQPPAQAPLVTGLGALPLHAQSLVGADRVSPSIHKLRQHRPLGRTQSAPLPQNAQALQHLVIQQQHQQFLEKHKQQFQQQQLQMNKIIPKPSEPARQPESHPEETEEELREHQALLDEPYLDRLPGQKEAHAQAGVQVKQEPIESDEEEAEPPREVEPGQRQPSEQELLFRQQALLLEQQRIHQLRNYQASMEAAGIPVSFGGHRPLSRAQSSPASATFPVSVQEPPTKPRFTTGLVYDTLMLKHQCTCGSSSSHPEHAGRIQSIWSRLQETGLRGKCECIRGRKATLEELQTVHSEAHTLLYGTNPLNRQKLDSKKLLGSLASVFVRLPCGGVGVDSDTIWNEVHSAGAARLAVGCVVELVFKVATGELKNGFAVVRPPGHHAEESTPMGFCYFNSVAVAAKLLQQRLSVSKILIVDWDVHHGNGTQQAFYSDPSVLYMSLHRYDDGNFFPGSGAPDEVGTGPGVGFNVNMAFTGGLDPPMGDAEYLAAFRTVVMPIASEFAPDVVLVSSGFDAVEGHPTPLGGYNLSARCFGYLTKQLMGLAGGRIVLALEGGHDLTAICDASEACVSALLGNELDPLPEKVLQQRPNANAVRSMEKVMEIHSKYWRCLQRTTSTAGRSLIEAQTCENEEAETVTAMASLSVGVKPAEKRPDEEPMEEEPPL
HDAC9, sequence (Q9UKV0 whole entry, species assumed): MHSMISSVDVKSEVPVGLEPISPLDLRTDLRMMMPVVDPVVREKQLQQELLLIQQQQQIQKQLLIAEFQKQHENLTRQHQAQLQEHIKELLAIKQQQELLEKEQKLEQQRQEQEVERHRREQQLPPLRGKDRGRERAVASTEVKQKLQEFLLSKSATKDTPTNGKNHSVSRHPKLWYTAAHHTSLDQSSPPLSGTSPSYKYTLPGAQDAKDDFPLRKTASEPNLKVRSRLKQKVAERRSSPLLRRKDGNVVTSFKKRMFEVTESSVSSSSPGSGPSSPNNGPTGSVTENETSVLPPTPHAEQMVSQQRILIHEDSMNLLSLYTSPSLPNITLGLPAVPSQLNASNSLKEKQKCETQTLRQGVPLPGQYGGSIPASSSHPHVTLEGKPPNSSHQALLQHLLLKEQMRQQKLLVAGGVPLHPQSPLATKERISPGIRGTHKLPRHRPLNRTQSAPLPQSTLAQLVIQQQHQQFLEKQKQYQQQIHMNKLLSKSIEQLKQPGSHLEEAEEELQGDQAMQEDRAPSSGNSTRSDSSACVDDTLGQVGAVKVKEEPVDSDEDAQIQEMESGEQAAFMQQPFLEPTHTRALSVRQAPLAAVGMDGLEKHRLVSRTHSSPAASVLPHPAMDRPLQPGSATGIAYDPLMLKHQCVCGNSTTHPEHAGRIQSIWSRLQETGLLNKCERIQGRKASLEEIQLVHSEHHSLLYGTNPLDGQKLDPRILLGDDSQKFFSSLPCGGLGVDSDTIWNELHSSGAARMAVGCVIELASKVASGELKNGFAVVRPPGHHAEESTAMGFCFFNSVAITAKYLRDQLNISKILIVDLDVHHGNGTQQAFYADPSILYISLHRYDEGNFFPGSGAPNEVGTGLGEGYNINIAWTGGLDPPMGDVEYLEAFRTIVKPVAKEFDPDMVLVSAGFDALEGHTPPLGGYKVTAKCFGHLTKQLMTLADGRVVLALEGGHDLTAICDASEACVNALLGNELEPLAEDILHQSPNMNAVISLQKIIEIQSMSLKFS

`CN1CCN(C(=O)N(CCCCCCC(=O)NO)c2ccc(-c3ccc4cnn(C)c4c3)cc2)CC1` [CKD-581, reference compound]: the IC50 – broadly, the concentration that gives 50% inhibition – at HDAC4 was found to be 1680 nM; at human recombinant HDAC6 (setting [1]), 2.39 nM; at HDAC8, 86.1 nM; at HDAC9, 0.42 nM; on HDAC11, 1.52 nM.
In the case of `O=C(NO)c1ccc(Cn2c3c(c4ccccc42)C(=O)N(CCN2CCOCC2)CC3)cc1` [Compound 249, N-hydroxy-4-((2-(2-morpholinoethyl)-1-oxo-1,2,3,4-tetrahydropyrido[4,3-b]indol-5-yl)methyl)benzamide], the IC50 on HDAC4 turned out to be 255 nM; on human recombinant HDAC6 (setting [1]) it was 5.09 nM; on human recombinant HDAC6 (setting [2]) it was 21.3 nM; at HDAC8, 220 nM; on HDAC9, 1030 nM; at HDAC11, 5530 nM. Moreover, the “Selectivity for HDAC6, HD1/HD6” value at human recombinant HDAC6 (Table 12) came out at 162.2.
In the case of `O=C(NO)c1ccc(Cn2c3c(c4ccccc42)C(=O)C(CN2CCOCC2)CC3)cc1` (stereo not drawn) [Compound 87, N-hydroxy-4-((3-(morpholinomethyl)-4-oxo-1,2,3,4-tetrahydrocarbazol-9-yl)methyl)benzamide], the IC50 at HDAC4 came to 934 nM; on human recombinant HDAC6 (setting [1]), 13.1 nM; on human recombinant HDAC6 (setting [2]), 7.45 nM; on human recombinant HDAC6 (data of Table 11, read-out: IC50 against HDAC6) it was 13 nM; at HDAC8, 1280 nM; at HDAC9, 1750 nM. At HDAC11, the IC50 came to 37500 nM. For the same compound, on human recombinant HDAC6 (Table 12), the “Selectivity for HDAC6, HD1/HD6” value is reported as 411.8. Also, the “selectivity for HDAC6 over HDAC1” value at human recombinant HDAC6 (from the data of Table 11) is reported as “more than 800 times”.
`CC1(C)CC(=O)c2c(C(F)(F)F)nn(Cc3ccc(C(=O)NO)cc3)c2C1` [Compound 237, 4-((6,6-dimethyl-4-oxo-3-(trifluoromethyl)-4,5,6,7-tetrahydro-1H-indazol-1-yl)methyl)-N-hydroxybenzamide]: the IC50 on HDAC4 is 4990 nM; on human recombinant HDAC6 (setting [1]), 32.2 nM; at human recombinant HDAC6 (setting [2]) it was 17.8 nM; on HDAC8, 3930 nM; on HDAC9 it was 16900 nM; on HDAC11, 33900 nM. The “Selectivity for HDAC6, HD1/HD6” value at human recombinant HDAC6 (Table 12) amounted to 219.3. In addition, the “selectivity for HDAC6 over HDAC1” value on human recombinant HDAC6 (from the data of Table 12) is given as “more than 219 times”.
Regarding `CN1CCN(CC2CCc3c(c4cc(F)ccc4n3Cc3ccc(C(=O)NO)cc3)C2=O)CC1` (stereo not drawn) [Compound 142, 4-((6-fluoro-3-((4-methylpiperazin-1-yl)methyl)-4-oxo-1,2,3,4-tetrahydrocarbazol-9-yl)methyl)-N-hydroxybenzamide], the IC50 on HDAC4 stood at 2210 nM; on human recombinant HDAC6 (setting [1]) it was 3.55 nM; on human recombinant HDAC6 (setting [2]), 4.7 nM; on HDAC8, 1060 nM; on HDAC9 it was 1880 nM; on HDAC11, 11100 nM. Besides, the “Selectivity for HDAC6, HD1/HD6” value on human recombinant HDAC6 (Table 12) stood at 568.3.

The record behind these values is patent publication US20140315889A1, “HYDROXAMATE DERIVATIVES FOR HDAC INHIBITOR, AND THE PHARMACEUTICAL COMPOSITION COMPRISING THEREOF” (CHONG KUN DANG PHARMACEUTICAL CORP., priority 2011, published 2014).
